Patent US20240116884A1, “Salts of Viloxazine” (Apotex Inc., priority 2022, published 2024)

Details: uncapped samples, 40° C./75% RH stability chamber, at least 3 weeks
Method: PXRD diffractograms were recorded on a Bruker D8 Discover powder X-ray diffractometer (Bruker AXS LLC, Karlsruhe, Germany). The generator was a Incoatec Microfocus Source (IμS) Cu tube (λ=1.54060 Å) with a voltage of 50 kV and current of 1.00 mA, using a divergence slit of 0.1 mm and collimator of 2.0 mm. For each sample, two frames were collected using a still scan with a PILATUS3 R 100K-A detector at the distance of 294.2 mm from the sample. Raw data were evaluated using the program DIFFRAC.EVA (Bruker AXS LLC, Karlsruhe, Germany).

Compound | change in the crystalline form by PXRD (form stability)
CCOc1ccccc1OCC1CNCCO1.CCOc1ccccc1OCC1CNCCO1.O=C(O)C(O)C(O)C(=O)O (racemic) [viloxazine hemi-DL-tartrate Form APO-I, viloxazine hemi-DL-tartrate] | no change in the crystalline form occurred
CCOc1ccccc1OCC1CNCCO1.O=S(=O)(O)c1ccc2ccccc2c1 (stereo not drawn) [viloxazine naphthalene-2-sulfonate] | no change in the crystalline form occurred
viloxazine fumarate [viloxazine fumarate Form APO-I] | no change in the crystalline form occurred
